Among the data in ChEMBL document CHEMBL3046797, “Structure-activity relationships of trichothecene toxins in an Arabidopsis thaliana leaf assay” (J Agric Food Chem, 2007) are ED50, LC50 and Activity values, retold here.

Common to all, as to format: organism-based
In data set [1] the test system is Arabidopsis thaliana. As to the kind of experiment: Phytotoxicity against Arabidopsis thaliana Col-4 leaves assessed as induction of chlorosis, shriveling or death of leaves […] by detached leaf assay. Conditions: in vivo.
A short description of data set [2]: Phytotoxicity against Arabidopsis thaliana Col-4 leaves assessed as induction of leaf death after 7 weeks post compound application by detached leaf assay. The following applies: Col-4, arabidopsis thaliana, read-out: LD50.
For data set [3], the system named is Arabidopsis thaliana. Kind of data set: Phytotoxicity against Arabidopsis thaliana Col-4 leaves assessed as induction of chlorosis at 100 uM […] by detached leaf assay. Conditions: in vivo, 1176 h.
The test system of data set [4] is Arabidopsis thaliana. As to the kind of experiment: Phytotoxicity against Arabidopsis thaliana Col-4 leaves assessed as induction of leaf death at 100 uM […] by detached leaf assay. Conditions: in vivo.
Data set [5] has as its system Arabidopsis thaliana. As to the kind of experiment: Phytotoxicity against Arabidopsis thaliana Col-4 leaves assessed as induction of chlorosis at 10 uM […] by detached leaf assay. Conditions: in vivo.
For data set [6], the system named is Arabidopsis thaliana. Kind of data set: Phytotoxicity against Arabidopsis thaliana Col-4 leaves assessed as induction of leaf death at 10 uM […] by detached leaf assay. Conditions: in vivo.
In data set [7] the test system is Arabidopsis thaliana. Kind of data set: Phytotoxicity against Arabidopsis thaliana Col-4 leaves assessed as induction of leaf death at 50 uM […] by detached leaf assay. Conditions: in vivo.
Data set [8] relates to Arabidopsis thaliana. Kind of data set: Phytotoxicity against Arabidopsis thaliana Col-4 leaves assessed as induction of chlorosis at 50 uM […] by detached leaf assay. The following applies: in vivo, 1176 h.

With `CC(=O)OC[C@]12CCC(C)=C[C@H]1O[C@@H]1[C@H](OC(C)=O)C[C@@H](OC(C)=O)[C@@]2(C)[C@@]12CO2` [3,4,15-TRIACETOXYSCIRPENOL], in the data set with Arabidopsis thaliana [1], the ED50 amounted to 6.7 µM.
With `CC(=O)OC[C@]12[C@H](O)C(=O)C(C)=C[C@H]1O[C@@H]1[C@H](OC(C)=O)CC[C@@]2(C)[C@@]12CO2` [3,15-DIACETYLDEOXYNIVALENOL], in the data set with Arabidopsis thaliana [1], the ED50 was 10 µM. The LC50 at 1176 h in data set [2] was determined as 28.2 µM.
Turning to `CC(=O)OC[C@]12[C@H](O)C(=O)C(C)=C[C@H]1O[C@@H]1[C@H](OC(C)=O)C[C@@H](O)[C@@]2(C)[C@@]12CO2` [3,15-DIACETYLNIVALENOL], the ED50 in the data set on Arabidopsis thaliana [1] turned out to be 2.2 µM. Also, the LC50 at 1176 h in data set [2] worked out at 4.3 µM.
For the compound `CC1=C[C@H]2O[C@@H]3[C@H](O)CC[C@](C)([C@@]2(CO)CC1)[C@@]31CO1` [3,15-DIDEACETYLCALONECTRIN], the ED50 in the data set with Arabidopsis thaliana [1] is 90.1 µM.
On to `CC(=O)O[C@@H]1C[C@]2(C)[C@@]3(CO)[C@H](O)C(=O)C(C)=C[C@H]3O[C@H]1[C@@]21CO1` [3-ACETYLDEOXYNIVALENOL], for which, in the data set on Arabidopsis thaliana [1], the ED50 worked out at 3.4 µM. Moreover, the LC50 at 1176 h in data set [2] was 18.7 µM.
Take `CC(=O)OC[C@]12CCC(C)=C[C@H]1O[C@@H]1[C@H](O)CC[C@@]2(C)[C@@]12CO2` [3-DEACETYLCALONECTRIN]: the ED50 with Arabidopsis thaliana [1] came to 7.6 µM.
Same read-out and setting: the same measure for `CC(=O)O[C@@H]1C[C@@H](O)[C@H]2O[C@@H]3C=C(C)C(=O)[C@@H](O)[C@]3(CO)[C@]1(C)[C@@]21CO1` [4-ACETYLNIVALENOL]: 16.1 µM.
Consider `CC(=O)OC[C@]12[C@H](O)C(=O)C(C)=C[C@H]1O[C@@H]1[C@H](O)C[C@@]2(C)[C@]12CO2` [15-ACETYLDEOXYNIVALENOL], for which, in the data set with Arabidopsis thaliana [1], the ED50 was determined as 1.3 µM. Besides, the LC50 at 1176 h in data set [2] turned out to be 4 µM.
As to `CC(=O)O[C@@H]1CC[C@]2(C)[C@@]3(CO)CCC(C)=C[C@H]3O[C@H]1[C@]21CO1` [15-DEACETYLCALONECTRIN], the ED50 with Arabidopsis thaliana [1] is greater than 100 µM. Also, the Activity in the data set with Arabidopsis thaliana [3] stood at 50%.
As for `CC1=C[C@H]2O[C@@H]3[C@H](O)C[C@](C)([C@@]2(CO)[C@H](O)C1=O)[C@]31CO1` [DEOXYNIVALENOL], the ED50 in the data set with Arabidopsis thaliana [1] came out at 3.8 µM. Also, the LC50 at 1176 h in data set [2] was 23 µM.
The matching figures for `CC(=O)O[C@@H]1CC[C@]2(C)[C@@]3(C)CCC(C)=C[C@H]3O[C@H]1[C@]21CO1` [ISOTRICHODERMIN]: 8.6 µM and 16.1 µM.
Turning to `CC1=C[C@H]2O[C@@H]3[C@H](O)CC[C@](C)([C@@]2(C)CC1)[C@@]31CO1` [ISOTRICHODERMOL], the ED50 in the data set on Arabidopsis thaliana [1] was 3.5 µM.
In the case of `CC1=CC(O)[C@@](C)([C@@]2(C)C[C@@H](O)[C@@H](O)C23CO3)CC1` (stereo partly drawn) [ISOTRICHOTRIOL], the Activity with Arabidopsis thaliana [4], in the data set on Arabidopsis thaliana [5], with Arabidopsis thaliana [3], in the data set with Arabidopsis thaliana [6], with Arabidopsis thaliana [7] and in the data set with Arabidopsis thaliana [8] was 10% each time. The ED50 in the data set on Arabidopsis thaliana [1] is greater than 100 µM.
Consider `CC1=C[C@H]2O[C@@H]3[C@H](O)[C@@H](O)[C@](C)([C@@]2(CO)[C@H](O)C1=O)[C@]31CO1` [NIVALENOL], for which the ED50 with Arabidopsis thaliana [1] is greater than 100 µM. Besides, the Activity in the data set on Arabidopsis thaliana [3] came out at 10%. Further, the LC50 at 1176 h in data set [2] is greater than 100 µM.
As to `CC1=C[C@H]2O[C@@H]3[C@H](O)C[C@@H](O)[C@](C)([C@@]2(CO)CC1)[C@@]31CO1` [SCIRPENTRIOL], the ED50 in the data set with Arabidopsis thaliana [1] is 53.6 µM.
Turning to `C=C1CCC[C@]1(C)[C@]1(C)CC=C(C)CC1` [TRICHODIENE], the Activity in the data set on Arabidopsis thaliana [4] is 3%; in the data set with Arabidopsis thaliana [3], 10%. Besides, the ED50 in the data set on Arabidopsis thaliana [1] is greater than 100 µM.
